Data reported in patent US20090131306A1, “CHEMICALLY MODIFIED CYCLIC PEPTIDES CONTAINING CELL ADHESION RECOGNITION (CAR) SEQUENCES AND USES THEREFOR” (ADHEREX TECHNOLOGIES, INC., priority 2007, published 2009).
*1 amine or outer side, *2 acyl side, *3 side chain or, on linkers, in order; H or OH if unused. Where a SMILES comes first, the peptide text is derived from it. Bridges are numbered along the chain shown (N, C = ends). [ ]: non-standard residue; d: D form. Phe(4-yl) = O=C([C@H](Cc1ccc([*:3])cc1)N[*:1])[*:2]

How the values were obtained:
Aqueous solubility = assay type: physicochemical; conditions: result in words
Stability testing in PBS = conditions: result in words, relative to unmodified ADH-1
[1] = Stability testing in human whole blood; conditions: for stability in whole blood: human whole blood, result in words, relative to unmodified ADH-1
[2] = humans, following i.v. administration; cited from earlier work

| SMILES | aqueous solubility (Aqueous solubility) | stability in PBS (Stability testing in PBS) | stability in whole blood [1] | half-life ([1]; human, whole blood) [h] | circulating half-life [2] [h] | excreted unchanged in the urine [2] [%] |
| --- | --- | --- | --- | --- | --- | --- |
| CC(=O)NC1CSCc2ccccc2CSCC(C(N)=O)NC(=O)[C@H](C(C)C)NC(=O)[C@H](C)NC(=O)[C@H](Cc2c[nH]cn2)NC1=O (stereo partly drawn) [ADH100710-T, 8R, 11S, 14S, 17S, 20R 20-Acetylamino-17-(1H-imidazol-4-ylmethyl)-11-isopropyl-14-methyl-10,13,16,19-tetraoxo-5,7,8,10,11,12,13,14,15,16,17,18,19,20,21,23-hexadecahydro-9H-6,22-dithia-9,12,15,18-tetraaza-benzocyclohenicosene-8-carboxylic acid amide] |  | stable | stable |  |  |  |
| CC(=O)NC1CSCC(O)CSCC(C(N)=O)NC(=O)[C@H](C(C)C)NC(=O)[C@H](C)NC(=O)[C@H](Cc2c[nH]cn2)NC1=O (stereo partly drawn) [ADH100713-T, 3R, 6S, 9S, 12S, 15R 15-Acetylamino-19-hydroxy-12-(1H-imidazol-4-ylmethyl)-6-isopropyl-9-methyl-5,8,11,14-tetraoxo-1,17-dithia-4,7,10,13-tetraaza-cycloicosane-3-carboxylic acid amide] |  | stable | stable |  |  |  |
| CC(=O)N[C@H]1CSSC[C@@H](C(N)=O)NC(=O)[C@H](C(C)C)NC(=O)[C@H](C)NC(=O)[C@H](Cc2c[nH]cn2)NC1=O [ADH-1, N-Ac-CHAVC-NH2] |  |  |  | ~2 | 2.5 | 30 |
| CC(=O)N[C@H]1Cc2ccc(cc2)SC[C@@H](C(N)=O)NC(=O)[C@H](C(C)C)NC(=O)[C@H](C)NC(=O)[C@H](Cc2c[nH]cn2)NC1=O [ADH-100716-T, 4R, 7S, 10S, 13S, 16S 16-Acetylamino-13-(1H-imidazol-4-ylmethyl)-7-isopropyl-10-methyl-6,9,12,15-tetraoxo-2-thia-5,8,11,14-tetraaza-bicyclo[16.2.2]docosa 1(21), 18(22), 19-triene-4-carboxylic acid amide] (Ac-[Phe(4-yl)]HAVC-NH2; thioether 1-5) |  |  | improved blood stability |  |  |  |

Continued, in another order:

| aqueous solubility (Aqueous solubility) | stability in PBS (Stability testing in PBS) | stability in whole blood [1] | half-life ([1]; human, whole blood) [h] | SMILES | circulating half-life [2] [h] | excreted unchanged in the urine [2] [%] |
| --- | --- | --- | --- | --- | --- | --- |
| relatively low | much less so | much less so |  | CC(=O)N[C@H]1CSCc2cccc(c2)CSC[C@@H](C(N)=O)NC(=O)[C@H](C(C)C)NC(=O)[C@H](C)NC(=O)[C@H](Cc2c[nH]cn2)NC1=O [ADH100705-T] |  |  |
|  | failed to result in improved stability | failed to result in improved stability |  | CC(=O)N[C@H]1CSCC(=O)CSC[C@@H](C(N)=O)NC(=O)[C@H](C(C)C)NC(=O)[C@H](C)NC(=O)[C@H](Cc2c[nH]cn2)NC1=O [ADH100706-T] |  |  |
|  | stable | failed to show improved stability |  | CC(=O)N[C@H]1CSC[C@H](O)CSC[C@@H](C(N)=O)NC(=O)[C@H](C(C)C)NC(=O)[C@H](C)NC(=O)[C@H](Cc2c[nH]cn2)NC1=O [ADH-100712-T] |  |  |
